{"source": "patent US12570650B2", "about": "“6-substituted pyridazine compounds as SMARCA2 and/or SMARCA4 degraders” (Aurigene Oncology Limited, priority 2020, dated 2026)", "assay_type_in_all_cases": "cell-based", "key": {"SMARCA4": {"target": "T1, SMARCA4 (Homo sapiens, UniProt P51532)", "T1 construct": "Determination of SMARCA2 and SMARCA4 Degradation in VCaP Cells by Western Blot; endogenous in cells; host or cells: VCaP (ATCC CRL-2876)", "T1 sequence (P51532 whole entry)": "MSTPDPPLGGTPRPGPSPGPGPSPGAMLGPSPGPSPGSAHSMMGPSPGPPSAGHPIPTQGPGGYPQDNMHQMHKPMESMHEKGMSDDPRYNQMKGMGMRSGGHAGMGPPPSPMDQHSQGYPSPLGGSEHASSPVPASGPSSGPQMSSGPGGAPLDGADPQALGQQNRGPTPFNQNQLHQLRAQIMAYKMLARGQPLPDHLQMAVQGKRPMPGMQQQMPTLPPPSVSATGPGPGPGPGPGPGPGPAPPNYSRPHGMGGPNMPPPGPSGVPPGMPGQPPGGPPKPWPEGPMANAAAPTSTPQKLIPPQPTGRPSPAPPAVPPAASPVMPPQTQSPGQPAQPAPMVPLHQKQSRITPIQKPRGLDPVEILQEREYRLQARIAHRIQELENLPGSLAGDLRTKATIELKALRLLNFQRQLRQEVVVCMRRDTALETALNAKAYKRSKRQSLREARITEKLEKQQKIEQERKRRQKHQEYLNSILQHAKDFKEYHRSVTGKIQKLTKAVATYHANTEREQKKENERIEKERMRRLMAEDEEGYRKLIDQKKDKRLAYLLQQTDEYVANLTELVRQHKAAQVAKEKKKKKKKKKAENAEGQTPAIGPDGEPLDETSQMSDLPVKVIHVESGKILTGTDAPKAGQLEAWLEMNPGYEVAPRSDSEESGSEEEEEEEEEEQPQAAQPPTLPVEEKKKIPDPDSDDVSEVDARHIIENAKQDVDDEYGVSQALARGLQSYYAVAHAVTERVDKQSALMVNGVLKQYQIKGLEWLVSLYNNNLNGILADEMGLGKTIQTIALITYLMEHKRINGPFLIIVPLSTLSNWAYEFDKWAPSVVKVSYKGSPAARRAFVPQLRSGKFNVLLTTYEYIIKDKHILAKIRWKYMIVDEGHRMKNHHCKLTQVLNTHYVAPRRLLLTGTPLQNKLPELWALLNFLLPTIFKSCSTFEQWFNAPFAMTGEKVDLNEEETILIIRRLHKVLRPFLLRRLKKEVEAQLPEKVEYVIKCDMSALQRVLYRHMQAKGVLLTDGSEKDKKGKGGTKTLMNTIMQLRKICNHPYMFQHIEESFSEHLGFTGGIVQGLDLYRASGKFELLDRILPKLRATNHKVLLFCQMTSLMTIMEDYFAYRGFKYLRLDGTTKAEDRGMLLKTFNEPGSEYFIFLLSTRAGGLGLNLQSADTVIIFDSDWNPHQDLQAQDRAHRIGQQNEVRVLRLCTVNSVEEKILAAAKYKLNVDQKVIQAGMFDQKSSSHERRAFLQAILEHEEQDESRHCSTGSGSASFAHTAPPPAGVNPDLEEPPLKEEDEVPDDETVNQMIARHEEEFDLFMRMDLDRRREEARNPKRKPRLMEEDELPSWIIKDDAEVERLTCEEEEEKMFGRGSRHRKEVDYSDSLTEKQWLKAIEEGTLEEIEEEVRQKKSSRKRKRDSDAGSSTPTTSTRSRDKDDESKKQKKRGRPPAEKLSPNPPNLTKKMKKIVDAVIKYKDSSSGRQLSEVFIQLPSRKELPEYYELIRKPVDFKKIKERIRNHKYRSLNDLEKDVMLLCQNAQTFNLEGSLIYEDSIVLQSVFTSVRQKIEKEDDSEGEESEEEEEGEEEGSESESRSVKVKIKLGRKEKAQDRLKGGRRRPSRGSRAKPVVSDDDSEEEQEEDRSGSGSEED", "test": "SMARCA4 degradation in VCaP cells by Western blot", "details": "16 hours", "in_short": "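VCaP cells treated with compounds diluted from DMSO stocks, final DMSO ≤0.3%; equal protein analysed by SDS-PAGE Western blot. Degradation = 100 − (normalized SMARCA4 band in treated/DMSO sample)×100.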"}, "SK-MEL-5 cells": {"system": "SK-MEL-5 cells", "test": "Anti proliferative activity, Cell Titer Glo assay, SK-MEL-5", "details": "Homo sapiens, SK-MEL-5, SK-MEL-5 cells, retreatment Day 4, terminated day 8, CellTiter-Glo", "method": "(§1) Example-P3: Determination of Anti Proliferative Activity of Compounds by Cell Titer Glo®(Promega) Assay\n(§2) Cells were seeded into 96-well plates and the plate was incubated in 37 degrees incubator overnight. The next day, compounds were diluted 3-fold to cover 9-point concentration range in DMSO. Intermediate plate dilution was prepared in media followed with compound treatment in cells. Retreatment of cells with compound dilutions was performed on Day 4 and assay was terminated on day 8 for SK-MEL-5 cells using CellTiter-Glo and the plate was kept on orbital shaker for 20 minutes at RT. Assay was terminated on day 6 for RERF-LC-A1 without a compound retreatment. Luminescence signal was recorded on VICTOR^3 instrument. Percent inhibition of proliferation was calculated at each concentration and plotted against the compound concentration. EC50 value was calculated using GraphPad software."}, "RERF-LC-A1 cell line": {"system": "RERF-LC-A1 cell line", "test": "Anti proliferative activity, Cell Titer Glo assay, RERF-LC-A1", "details": "144 h; RERF-LC-A1 cells, terminated day 6 without retreatment, CellTiter-Glo", "method": "as §1, §2\nHerein the group “++” refers to EC50 (RERF-LC-A1) values lower than 100 nM and “+” refers to EC50 (RERF-LC-A1) values greater than 100 nM."}, "SMARCA2": {"target": "T2, SMARCA2 (Homo sapiens, UniProt P51531)", "T2 construct": "Determination of SMARCA2 and SMARCA4 Degradation in VCaP Cells by Western Blot; endogenous in cells; host or cells: VCaP (ATCC CRL-2876)", "T2 sequence (P51531 whole entry)": "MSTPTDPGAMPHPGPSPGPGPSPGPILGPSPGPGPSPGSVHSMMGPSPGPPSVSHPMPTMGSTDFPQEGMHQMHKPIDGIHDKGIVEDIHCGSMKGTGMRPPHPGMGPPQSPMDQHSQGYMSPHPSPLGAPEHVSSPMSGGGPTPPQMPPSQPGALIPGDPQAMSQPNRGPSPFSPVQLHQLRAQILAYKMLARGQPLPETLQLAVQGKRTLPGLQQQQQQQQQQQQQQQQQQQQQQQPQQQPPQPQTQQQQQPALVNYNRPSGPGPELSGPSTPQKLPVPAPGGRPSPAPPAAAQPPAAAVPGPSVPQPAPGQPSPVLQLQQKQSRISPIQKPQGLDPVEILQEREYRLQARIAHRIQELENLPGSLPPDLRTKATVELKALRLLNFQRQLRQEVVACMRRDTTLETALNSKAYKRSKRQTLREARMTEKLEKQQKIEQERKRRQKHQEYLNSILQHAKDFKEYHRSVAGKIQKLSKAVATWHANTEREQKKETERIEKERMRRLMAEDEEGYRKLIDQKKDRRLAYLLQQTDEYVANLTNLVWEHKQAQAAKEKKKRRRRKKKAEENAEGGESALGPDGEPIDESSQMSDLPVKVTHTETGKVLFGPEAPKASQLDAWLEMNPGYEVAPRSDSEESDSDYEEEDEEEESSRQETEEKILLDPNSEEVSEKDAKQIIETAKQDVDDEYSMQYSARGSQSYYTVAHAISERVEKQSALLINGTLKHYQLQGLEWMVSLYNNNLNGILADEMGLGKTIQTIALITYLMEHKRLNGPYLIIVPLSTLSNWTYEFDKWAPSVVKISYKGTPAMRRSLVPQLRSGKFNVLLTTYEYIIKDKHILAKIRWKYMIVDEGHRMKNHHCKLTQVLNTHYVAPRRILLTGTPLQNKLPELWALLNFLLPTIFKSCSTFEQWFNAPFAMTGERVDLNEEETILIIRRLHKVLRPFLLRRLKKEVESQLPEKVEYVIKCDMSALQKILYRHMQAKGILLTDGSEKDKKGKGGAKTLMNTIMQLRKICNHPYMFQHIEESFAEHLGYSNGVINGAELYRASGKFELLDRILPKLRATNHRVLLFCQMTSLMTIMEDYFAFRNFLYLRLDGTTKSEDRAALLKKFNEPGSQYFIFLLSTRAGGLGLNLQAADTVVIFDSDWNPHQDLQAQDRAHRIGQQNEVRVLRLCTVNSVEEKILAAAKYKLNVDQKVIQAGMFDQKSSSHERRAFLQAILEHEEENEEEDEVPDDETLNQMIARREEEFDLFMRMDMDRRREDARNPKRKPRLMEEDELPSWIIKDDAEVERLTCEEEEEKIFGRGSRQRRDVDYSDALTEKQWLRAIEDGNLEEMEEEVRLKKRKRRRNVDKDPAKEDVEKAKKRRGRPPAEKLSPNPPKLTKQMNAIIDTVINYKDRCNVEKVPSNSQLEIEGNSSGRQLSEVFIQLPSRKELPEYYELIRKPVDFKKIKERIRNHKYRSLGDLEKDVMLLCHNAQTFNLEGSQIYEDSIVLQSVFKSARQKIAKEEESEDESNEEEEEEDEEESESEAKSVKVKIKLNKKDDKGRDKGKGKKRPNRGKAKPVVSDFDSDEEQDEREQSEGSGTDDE", "test": "SMARCA2 degradation in VCaP cells by Western blot", "details": "16 hours", "in_short": "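VCaP cells were treated with compound for 16 hours, with DMSO at no more than 0.3% final. Lysates were immunoblotted for SMARCA2, using beta-tubulin as loading control. % degradation = 100 − (normalized band intensity treated/normalized band intensity DMSO)×100.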"}}, "data": [{"smiles": "Cc1ncsc1-c1ccc([C@H](C)NC(=O)[C@@H]2C[C@@H](O)CN2C(=O)[C@@H](NC(=O)CN2CC=C(c3ccc(-c4cnnc(-c5ccccc5O)c4)cc3)CC2)C(C)(C)C)cc1", "note": "[Compound 10, (2S,4R)-4-hydroxy-1-((S)-2-(2-(4-(4-(6-(2-hydroxyphenyl)pyridazin-4-yl)phenyl)-3,6-dihydropyridin-1(2H)-yl)acetamido)-3,3-dimethylbutanoyl)-N-((S)-1-(4-(4-methylthiazol-5-yl)phenyl)ethyl)pyrrolidine-2-carboxamide]", "values": [{"measurement": "Percent degradation (at 100 nM) SMARCA4", "setting": "SMARCA4", "result": 0, "unit": "%"}, {"measurement": "EC50", "setting": "SK-MEL-5 cells", "result": "250 to 500", "unit": "nM"}, {"measurement": "EC50", "setting": "RERF-LC-A1 cell line", "result": "< 100", "unit": "nM"}, {"measurement": "Percent degradation (at 100 nM) SMARCA2", "setting": "SMARCA2", "result": 83, "unit": "%"}]}, {"smiles": "Cc1ncsc1-c1ccc([C@H](C)NC(=O)[C@@H]2C[C@@H](O)CN2C(=O)[C@@H](NC(=O)CN2CCN(c3ccc(-c4cnnc(-c5ccccc5O)c4)cn3)CC2)C(C)(C)C)cc1", "note": "[Compound 5, (2S,4R)-4-hydroxy-1-((S)-2-(2-(4-(5-(6-(2-hydroxyphenyl)pyridazin-4-yl)pyridin-2-yl)piperazin-1-yl)acetamido)-3,3-dimethylbutanoyl)-N-((S)-1-(4-(4-methylthiazol-5-yl)phenyl)ethyl)pyrrolidine-2-carboxamide]", "values": [{"measurement": "Percent degradation (at 100 nM) SMARCA4", "setting": "SMARCA4", "result": 0, "unit": "%"}, {"measurement": "EC50", "setting": "SK-MEL-5 cells", "result": "< 250", "unit": "nM"}, {"measurement": "EC50", "setting": "RERF-LC-A1 cell line", "result": "> 100", "unit": "nM"}, {"measurement": "Percent degradation (at 100 nM) SMARCA2", "setting": "SMARCA2", "result": 94, "unit": "%"}]}]}
